The text below walks through data of patent publication US20180015051A1, “MODULATORS OF ALPHA-DICARBONYL DETOXIFICATION AND THEIR USE FOR THE TREATMENT OF DIABETIC PATHOLOGIES” (Buck Institute for Research on Aging, priority 2016, published 2018).

SMILES strings stand for the structures.

The test system of one assay is native HEK293T cells. The experiment in a line: Calcium imaging of native HEK293T cells (GFP only). The class given is cell-based. The method, then: (§1) Appropriate HEK293T-derived cells were seeded on collagen-coated glass bottom culture dishes (MatTek Corporation). Cells were loaded with 10 pM of Rhod-3 AM (Life Technology) for 30 min at 37° C. After 30 min they were washed twice with standard Tyrode's solution (135 mM NaCl, 4 mM KCl, 10 mM glucose, 10 mM HEPES, 2 mM CaCl2, and 1 mM MgCl2 at pH=7.4) at room temperature. Calcium imaging was performed on an Olympus BX51WI Axiovert microscope under a 60× objective. Fluorescent images were documented upon sequential excitation with 555 nm followed by 484 nm with a Roper CoolSnap CCD camera. After establishing a baseline 555/484 ratio, methylglyoxal or other agonists were diluted with Tyrode's solution (100 pM or 1 mM final concentration) and were perfused into cells. Images were processed with the MetaFlour (Olympus) software.

For a further assay, the target named is T1, TRPM8 (mouse) (Mus musculus, UniProt Q8R4D5).
T1 construct: expressed in transfected cells; host or cells: HEK293T
T1 sequence (Q8R4D5 whole entry): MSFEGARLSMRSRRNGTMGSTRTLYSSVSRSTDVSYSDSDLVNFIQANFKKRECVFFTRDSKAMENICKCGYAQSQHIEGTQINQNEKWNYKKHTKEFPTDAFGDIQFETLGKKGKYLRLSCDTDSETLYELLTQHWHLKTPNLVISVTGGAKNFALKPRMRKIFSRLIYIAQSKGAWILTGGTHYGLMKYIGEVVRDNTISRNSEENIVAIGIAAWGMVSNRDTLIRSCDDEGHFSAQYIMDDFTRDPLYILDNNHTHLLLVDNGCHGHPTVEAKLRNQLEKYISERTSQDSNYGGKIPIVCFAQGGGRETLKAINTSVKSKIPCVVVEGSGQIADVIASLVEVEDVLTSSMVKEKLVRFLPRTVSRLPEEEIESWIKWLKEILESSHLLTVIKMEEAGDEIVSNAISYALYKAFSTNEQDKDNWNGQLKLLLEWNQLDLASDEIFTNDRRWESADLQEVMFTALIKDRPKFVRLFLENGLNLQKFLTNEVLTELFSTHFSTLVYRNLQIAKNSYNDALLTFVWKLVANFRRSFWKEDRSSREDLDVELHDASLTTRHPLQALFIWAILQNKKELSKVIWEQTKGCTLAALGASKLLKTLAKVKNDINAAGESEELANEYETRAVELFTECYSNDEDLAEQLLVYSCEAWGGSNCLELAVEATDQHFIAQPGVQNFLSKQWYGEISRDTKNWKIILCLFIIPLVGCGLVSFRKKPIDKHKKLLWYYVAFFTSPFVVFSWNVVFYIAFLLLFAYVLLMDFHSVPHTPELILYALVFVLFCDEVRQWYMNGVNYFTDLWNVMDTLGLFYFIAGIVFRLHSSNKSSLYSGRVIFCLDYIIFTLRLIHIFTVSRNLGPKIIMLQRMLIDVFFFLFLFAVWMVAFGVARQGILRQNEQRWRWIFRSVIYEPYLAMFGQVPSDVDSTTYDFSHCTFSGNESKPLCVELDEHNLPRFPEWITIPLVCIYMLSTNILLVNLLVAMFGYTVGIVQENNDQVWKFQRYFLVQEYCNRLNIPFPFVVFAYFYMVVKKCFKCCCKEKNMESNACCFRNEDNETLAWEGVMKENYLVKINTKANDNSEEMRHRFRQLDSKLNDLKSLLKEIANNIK
The experiment in a line: Calcium imaging of HEK293T cells (Rhod-3 AM), mouse TRPM8. Conditions: HEK293T transfected with mouse TRPM8 and GFP; 100 pM MGO then 100 pM menthol. The class given is cell-based. The method, then:
as §1

The next assay addresses T2, TRPA1 (worm) (Caenorhabditis elegans, UniProt Q18297).
T2 construct: expressed in transfected cells; host or cells: HEK293T
T2 sequence (Q18297 1-1211): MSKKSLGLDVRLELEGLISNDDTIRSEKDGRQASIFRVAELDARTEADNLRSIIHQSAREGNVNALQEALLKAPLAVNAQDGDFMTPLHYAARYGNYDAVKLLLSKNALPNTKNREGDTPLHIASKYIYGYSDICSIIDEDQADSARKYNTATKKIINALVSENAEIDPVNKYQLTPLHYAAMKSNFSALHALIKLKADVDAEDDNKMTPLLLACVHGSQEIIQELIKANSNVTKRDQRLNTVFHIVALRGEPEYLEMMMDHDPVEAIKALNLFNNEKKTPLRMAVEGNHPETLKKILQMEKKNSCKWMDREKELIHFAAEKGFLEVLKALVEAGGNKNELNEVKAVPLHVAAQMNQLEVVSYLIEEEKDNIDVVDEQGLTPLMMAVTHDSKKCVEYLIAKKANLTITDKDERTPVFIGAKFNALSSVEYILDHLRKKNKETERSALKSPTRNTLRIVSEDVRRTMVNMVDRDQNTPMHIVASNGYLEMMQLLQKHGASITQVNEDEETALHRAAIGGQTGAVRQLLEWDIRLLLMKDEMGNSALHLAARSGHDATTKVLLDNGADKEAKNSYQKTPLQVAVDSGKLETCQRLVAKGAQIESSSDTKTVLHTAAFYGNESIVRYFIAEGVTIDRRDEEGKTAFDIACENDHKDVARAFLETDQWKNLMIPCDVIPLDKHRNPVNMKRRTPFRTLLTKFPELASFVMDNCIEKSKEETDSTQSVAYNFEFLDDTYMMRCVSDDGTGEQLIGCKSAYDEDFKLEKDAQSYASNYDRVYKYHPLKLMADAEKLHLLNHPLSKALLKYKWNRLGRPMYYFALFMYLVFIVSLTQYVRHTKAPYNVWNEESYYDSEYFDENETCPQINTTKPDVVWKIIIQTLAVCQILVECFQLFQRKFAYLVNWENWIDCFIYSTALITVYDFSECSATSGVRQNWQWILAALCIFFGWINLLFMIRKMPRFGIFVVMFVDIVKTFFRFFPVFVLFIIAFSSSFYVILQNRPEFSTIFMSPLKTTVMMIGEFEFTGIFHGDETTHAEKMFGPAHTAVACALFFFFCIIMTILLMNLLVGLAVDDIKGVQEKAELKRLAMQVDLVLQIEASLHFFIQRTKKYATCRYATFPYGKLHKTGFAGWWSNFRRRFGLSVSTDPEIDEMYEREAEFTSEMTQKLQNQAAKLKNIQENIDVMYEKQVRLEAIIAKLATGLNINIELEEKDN
The experiment in a line: Calcium imaging of HEK293T cells (Rhod-3 AM), worm TRPA1. To be noted: HEK293 cells transfected with worm TRPA1 and GFP; 100 pM AITC. The class given is cell-based, C. elegans. The method, then:
as §1

The next assay deals with T3, TRPA1 (RAT) (Rattus norvegicus, UniProt Q6RI86).
T3 construct: expressed in transfected cells; host or cells: HEK293T
T3 sequence (Q6RI86 whole entry): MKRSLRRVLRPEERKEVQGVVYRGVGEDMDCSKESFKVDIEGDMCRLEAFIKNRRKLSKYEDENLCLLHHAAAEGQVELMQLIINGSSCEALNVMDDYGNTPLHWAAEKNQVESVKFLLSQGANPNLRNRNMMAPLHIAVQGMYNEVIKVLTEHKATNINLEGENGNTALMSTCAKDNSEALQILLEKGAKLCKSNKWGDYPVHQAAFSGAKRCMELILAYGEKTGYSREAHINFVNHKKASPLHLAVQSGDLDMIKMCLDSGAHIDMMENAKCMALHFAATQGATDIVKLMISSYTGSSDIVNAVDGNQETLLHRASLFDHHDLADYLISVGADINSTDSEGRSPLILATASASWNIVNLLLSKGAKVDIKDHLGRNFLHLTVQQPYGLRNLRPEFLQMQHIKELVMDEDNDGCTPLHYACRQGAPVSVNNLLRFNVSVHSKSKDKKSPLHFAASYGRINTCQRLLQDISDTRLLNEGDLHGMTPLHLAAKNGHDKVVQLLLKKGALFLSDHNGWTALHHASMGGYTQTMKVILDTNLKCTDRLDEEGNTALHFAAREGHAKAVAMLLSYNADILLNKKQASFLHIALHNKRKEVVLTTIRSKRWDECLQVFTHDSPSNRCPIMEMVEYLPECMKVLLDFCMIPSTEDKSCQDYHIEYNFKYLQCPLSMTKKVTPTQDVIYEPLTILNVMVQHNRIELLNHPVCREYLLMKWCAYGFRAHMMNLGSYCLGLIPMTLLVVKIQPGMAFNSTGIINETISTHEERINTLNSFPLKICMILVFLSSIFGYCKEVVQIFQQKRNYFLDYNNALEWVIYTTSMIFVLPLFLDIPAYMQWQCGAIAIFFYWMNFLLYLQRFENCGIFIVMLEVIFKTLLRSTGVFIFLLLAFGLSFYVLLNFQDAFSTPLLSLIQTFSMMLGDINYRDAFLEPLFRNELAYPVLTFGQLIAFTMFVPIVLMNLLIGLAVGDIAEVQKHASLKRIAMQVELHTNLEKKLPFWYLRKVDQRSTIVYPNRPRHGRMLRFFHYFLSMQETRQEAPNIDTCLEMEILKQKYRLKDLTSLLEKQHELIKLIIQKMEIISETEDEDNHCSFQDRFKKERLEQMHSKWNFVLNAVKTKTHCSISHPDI
Conditions: stated as known; cited from earlier work.

The next assay relates to glod-4 animals. The experiment in a line: LC-MS/MS estimation of a-DC levels (MGO, GO) in worms. The class given is in vivo, Caenorhabditis elegans. To be noted: glod-4, PA. The method, then: Worms were cultured on NGM agar plates as explained before for lifespan experiments with some modifications: ˜100 animals/60 mm plates were used for each experimental replicate and animals were harvested at day 4 of adulthood with 20 pL M9 buffer in 1.5 mL eppendorf tubes. Worm suspensions were flash-frozen over liquid nitrogen and subsequently homogenized ultrasonically using a Fisher Scientific's 550 Sonic Dismembrator with 80 pL of sodium formate buffer (pH=3) containing 75 pM of 2,3-hexanedione (internal standard, IS). Two 20 s pulses at amplitude setting 4 of the instrument (on ice) were sufficient to completely homogenize worm bodies. To each homogenate tube 20 pL of 100 mg/mL o-phenelynediamine (OPD) solution in sodium formate buffer (pH=3) were added, and the mixture was allowed to react in dark at room temperature for ˜22 h. The long reaction time and the pH are critical parameters in this protocol: first to ensure complete derivatization of a-DCs bound reversibly to protein/glutathione —SHs; and second to prevent in vitro a-DC generation from glycolytic intermediates (DHAP, GAP, etc.) or due to DNA breakdown (Chaplen et al. (1998) Proc. Natl. Acad. Sci. USA, 95: 5533-5538). At the end of the stipulated reaction window, 12 pL of 5 M perchloric acid was added to each tube and incubated on ice for 30 min to ensure complete protein precipitation. Subsequently, the tubes were centrifuged at 10,000 rpm for 10 min, and the supernatant collected and neutralized with 30 pL 4 M NH4OH solution.
Optimization of analyte-specific MRM transitions, such as determination of suitable precursor and product ions and optimal MS parameters for each transition (Q1, precursor→Q3, product) were achieved by isocratic flow injection of the 10 pM solution (final) for each standard- or IS-OPD derivatives. The most intense (Q1→Q3) transition was used as quantifier, whereas the next best transition was used as qualifier for each compound (Table 4). For LC separation, a solvent gradient of 0.1% acetic acid in water (aqueous) - methanol (organic) was used with 0.4 mL/min flow rate, starting with an […] content of 3% for 0.7 min, which was increased to 100% over 6 min and held at 100% for 1.5 min. The LC column was subsequently reconstituted to its initial condition (methanol content of 3%) over the next 0.5 min and re-equilibrated for 3 min.
Derivatized metabolome extracts, as well as synthetic a-DCs were analyzed by scheduled LC-MRM in positive ion mode. To develop the scheduled LC-MRM method, MS/MS data was collected for all transitions across the length of each LC run for a mixture of synthetic GO-, MGO-, 3DG-, and 2,3-hexanedione (IS)-OPD derivatives (1 pL injection of 1 pM final concentration). Source conditions were as follows: curtain gas (CUR) 20, nebulizer gas (GS1) 60, auxiliary gas (GS2) 50, ionspray voltage (IS) 4500 V, and source temperature (TEM) 450° C. This step was undertaken to ascertain the LC retention times (RT) for the OPD derivatives. Several such sets were acquired to compute analyte-specific variability in RTs. Next, the MS was switched to operate in scheduled MRM mode, whereby the mass spectrometer acquired data for specific MRM transitions ±45 s around the computed RT for the analyte (Table 4). Relative quantification of GO, MGO, and 3DG were based on integration of corresponding OPD derivative-specific quantifier peaks obtained from scheduled LC-MRM runs (peak areas) and adjusted to the number of animals. To account for OPD derivatization efficiencies in individual tubes, sample-to-sample variability in MS response, and differential sample dilutions (both for synthetic a-DCs as well as a-DCs in worm homogenates), the peak areas were normalized to the quantifier peak area for IS-OPD for each sample.

For assay [1], the system named is C. elegans. Put plainly: Touch assay (touch index, gentle touch). Conditions: glod-4, young adult stage; 66.7 pM in DMSO. The method, then: For feeding RNAi bacteria, synchronized L1 larvae were transferred to NGM plates containing 1 mM of isopropyl P-D-1- thiogalactopyranoside/IPTG (referred to as RNAi plates) seeded with 20× concentrated HT1115 bacteria (cultured overnight at 20° C. at 220 rpm), carrying desired plasmid for RNAi of a specific gene or bacteria carrying empty vector pL4440 as control and allowed to grow on plates for 48 h. For drug assays, synchronized L4 larvae were transferred to either 60 mm NGM plates (with or without IPTG), freshly seeded with 5×E. coli OP50-1 or 20× HT1115 RNAi bacteria. Before seeding, the desired drug (or vehicle control) was mixed with the bacteria. Final drug concentrations were calculated considering the total volume of media and bacteria seeded on the NGM plates.
Briefly, each animal was touched alternately in the head region and in the tail with an eyelash. Typically, an omega turn or diversion in head direction resulting from anterior touch was counted as a positive response. Posterior touch response (not counted towards positive response) functioned towards resetting of the response to anterior touch. Touch index (TI) scores were generated by dividing the total number of positive responses over the […] per animal.
Synchronized glod-4 L1 animals were cultured on NGM agar plates seeded with E. coli OP50-1 until L4. […] Post-transfer into wells, animals were fed OP50-1 bacteria ad libitum while incubating at 20° C. on a rocker for 12 h. DMSO was used as control. Post-incubation with drug or DMSO, animals were transferred from wells onto NGM agar plates seeded with OP50-1 bacteria. Touch assay was performed on individual animal and touch index (TI) was calculated for each compound from the library as mentioned earlier.

For the next assay, the system named is SKN-1/Nrf2. Put plainly: SKN-1 activation assay (GFP reporters for SKN-1, gst-4, gcs-1; qPCR). The class given is in vivo, Caenorhabditis elegans. To be noted: gst-4p::gfp animals on EV or glod-4 RNAi; PA, LA, or UMP (20 pM). How it is done:
Adult animals were examined for SKN-1/Nrf2 activation using GFP reporters for both SKN-1 and SKN-1 target genes: gst-4 and gcs-1. For exogenous MGO and drug assays, age-synchronized GFP reporter strains were subject to control and treatment conditions for a period of 4-6 hours before microscopy. For RNAi-induced activation studies, GFP reporter strains were fed on HT1115 bacteria expressing empty vector pL4440 or RNAi gene from L1 stage. Synchronized day 1 adult animals were then subjected to microscopic examination. Activation of SKN-1 using SKN-1 fusion reporter was determined as described earlier (An et al. (2003) Genes & Dev. 17: 1882-1893; Onken and Driscoll (2010) PloS One, 5: e8758). Scoring for downstream SKN-1 targets carrying GFP reporter for gcs-1 promoter was performed based on a previous study (Wang et al. (2010) PLoS Genetics, doi. org/10.1371/journal.pgen.1001048) and categorized as follows: ‘high’ for strong GFP signal throughout the intestine, ‘medium’ for GFP signal in the anterior or posterior section of the intestine and ‘low’ for weak or no signal. For animals with gst-4 promoters carrying GFP reporters number of GST-4 positive foci was counted under different conditions as described previously (Fensgardet al. (2010) Aging, 2: 133-159). Quantification of acquired images was done using the Image J™ software (//imagej.nih.gov/ij/).
Total RNA was extracted from nearly 100 age-synchronized adult animals picked and collected in 20 pl of M9 buffer using TRIzol reagent (Life Technologies, CA). Subsequently, 1 pg total RNA was used as template for cDNA synthesis. cDNA was synthesized using the ISCRIPT™ cDNA synthesis kit (Bio-Rad, CA) following manufacturer's protocol. qRT-PCR was carried out using the SensiFAST SYBR No-ROX kit (Bioline, MA) in a LightCycler 480 Real-Time PCR system (Roche Diagnostics Corp., IN). Quantification was performed using the comparative AACt method and normalization for internal reference was done using actin gene act-1.
In general terms: In qPCR the cycle at which signal appears reflects the starting amount.

In assay [2] the test system is C. elegans. The experiment in a line: Lifespan assay (survival curves). The class given is in vivo, Caenorhabditis elegans. To be noted: glod-4 mutant animals; PA, LA, or UMP (20 pM) vs EtOH control. The method, then: Life span assays were performed in Thermo Scientific Precision incubators at 20° C. After alkaline hypochlorite treatment, synchronized L1 animals were either placed onto NGM plates seeded with 5× concentrated E. coli OP50-1 (cultured on Lysogeny Broth/LB overnight) or on RNAi plates supplemented with 20×HT1115 RNAi bacteria. Post-L4 stage of development, all lifespan assays were performed using FUdR (5-fluoro-2 deoxyuridine) plates to inhibit development and growth of progeny. Every two days, animals were transferred on to new 60 mm NGM or RNAi plates freshly seeded with OP50-1 or HT1115 bacteria (with or without drug), respectively. 90-120 animals were considered for each lifespan experiment. Animal viability was assessed visually or with gentle prodding on the head. Animals were censored in the event of internal hatching of the larvae, body rupture, or crawling of larvae from the plates.

With `CC1CCC(C(C)C)C(O)C1` (stereo not drawn) [menthol], the “Ca2+ flux in native HEK293T cells (Rhod-3 AM)” value in the assay with native HEK293T cells is “neither compounds resulted in Ca^+2 flux”. Besides, the “Ca2+ flux through the TRPM8 channel (Rhod-3 AM)” value on TRPM8 (mouse) is “triggers a Ca^+2 flux”.

Turning to `C=CCN=C=S` [AITC, allyl isothiocyanate], the “Activation of worm TRPA1 channel (Ca2+ flux, Rhod-3 AM)” value on TRPA1 (worm) is “failed to activate”. On TRPA1 (RAT), the “Activation of mammalian TRPA1” value is “known to activate”.

On to `O=c1ccn([C@@H]2O[C@H](COP(=O)(O)O)[C@@H](O)[C@H]2O)c(=O)[nH]1` [UMP, Uridine monophosphate], for which, in the assay on glod-4 animals (LA, or UMP (20 pM each) vs EtOH control), the “Levels of GO” value was “does not ameliorate”. For the same compound, in the assay on glod-4 animals (LA, or UMP (20 pM) vs EtOH control), the “Levels of MGO” value is “does not ameliorate”. In addition, in the assay on C. elegans [1], the “Touch sensitivity (touch index) in drug screen of TimTec NPL640” value is “reduced touch sensitivity”. Also, in the assay with SKN-1/Nrf2, the “SKN-1 activation (GFP foci in gst-4p::gfp)” value is reported as “nor does it activate SKN-1”. The “Lifespan / early mortality (survival curves)” value in the assay on C. elegans [2] is listed as “does not ameliorate”.
